Measured values as given in patent US10757939B2, “Insecticidal and nematocidal active ingredient combinations” (priority 2014, dated 2020).
Where two headings read alike, the source gives them in different places.

Legend:
[1] = test system: Meloidogyne incognita; assay: Meloidogyne incognita - test (gall formation, sand, salad seedlings); type: in vivo
Method: (§1) Formula for the Efficacy of the Combination of Two Compounds
(§2) Schneider-Orelli: Formula to Calculate Corrected Efficacy % in Pesticide Trials
Meloidogyne incognita—Test […]
Vessels are filled with sand, a solution of the active ingredient, a suspension containing eggs and larvae of the southern root-knot nematode (Meloidogyne incognita) and salad seeds. The salad seeds germinate and the seedlings grow. Galls develop in the roots.
After the specified period the nematicidal activity is determined on the basis of the percentage of gall formation.

[2] = test system: Tetranychus urticae; assay: Tetranychus urticae - drench test; OP-resistant (bean plants); type: in vivo; details: for mortality at 25 ppm: Tetranychus urticae, soil, 360 h, read-out: Efficacy in % after 15 d (mortality)
Method: as §1, §2
Tetranychus urticae—Drench Test; OP-Resistant
(§3) • Solvent: 7 parts by weight of dimethylformamide • Emulsifier: 2 parts by weight of alkylaryl poly glycol ether
(§4) In the calculation of the concentration the soil volume has to be included. […] Further test concentrations are prepared by dilution with water.
After the specified period of time mortality in % is determined. 100% means all the spider mites have been killed and 0% means none of the spider mites have been killed. The mortality values determined thus are recalculated using the Colby-formula (see sheet 1).

[3] = logP by HPLC-MS
[4] = test system: Myzus persicae; assay: Myzus persicae - drench test (cabbage plants); type: in vivo; details: soil
Method: as §1, §2
Myzus persicae—Drench Test
as §3, §4
After the specified period of time mortality in % is determined. 100% means all the aphids have been killed and 0% means none of the aphids have been killed. The mortality values determined thus are recalculated using the Colby-formula (see sheet 1).

[5] = test system: Spodoptera frugiperda; assay: Spodoptera frugiperda - drench test (corn plants); type: in vivo
Method: as §1, §2
Spodoptera frugiperda—Drench Test
as §3, §4
After the specified period of time mortality in % is determined and corrected according to Schneider-Orelli's formula (see sheet 1). 100% means all the caterpillars have been killed and 0% means none of the caterpillars have been killed. The mortality values determined thus are recalculated using the Colby-formula (see sheet 1).

[6] = test system: Meloidogyne incognita; assay: Meloidogyne incognita - drench test (soil, salad seedlings); type: in vivo
Method: as §1, §2
Meloidogyne incognita—Drench Test
• Solvent: 7 parts by weight of dimethylformamide • Emulsifier: 2.5 parts by weight of alkylarylpolyglycolether
as §4
The compound solution is poured into pots filled with soil (loamy sand). A suspension containing eggs and larvae of the southern root-knot nematode (Meloidogyne incognita) is added, salad seeds are spread on the soil surface and covered with quartz sand. The salad seeds germinate and the seedlings grow. Galls develop on the roots.
After the specified period of time the nematicidal activity is determined on the basis of the percentage of gall formation. […] The activity determined thus is recalculated using the Colby-formula (see sheet 1).

[7] = 168 h, 7 d, read-out: Efficacy in % after 7d
[8] = 240 h, 10 d, read-out: Efficacy in % after 10d

Compound: O=C(Nc1ccn(-c2c(F)cccc2F)n1)c1ccccc1C(F)(F)F [Compound (Ia), N-[1-(2,6-difluorophenyl)-1H-pyrazol-3-yl]-2-(trifluoromethyl)benzamide]
- Efficacy in % after 14d ([1]; 1 ppm): 0%
- Efficacy in % after 14d ([1]; 5 ppm): 0%
- Efficacy in % after 14d ([1]; 10 ppm): 0%
- mortality at 25 ppm [2]: 10%
- logP [3]: 2.68
- pest or weed control at 2 ppm [4, 7]: 0%
- pest or weed control at 20 ppm [4, 7]: 0%
- pest or weed control at 2 ppm [4, 8]: 0%
- pest or weed control at 20 ppm [4, 8]: 0%
- Efficacy in % after 14d ([5]; 0.2 ppm): 0%
- Efficacy in % after 14d ([5]; 40 ppm): 0%
- Efficacy in % after 4d ([5]; 200 ppm): 0%
- Efficacy in % after 6d ([5]; 200 ppm): 0%
- Efficacy in % after 21d ([6]; 0.75 ppm): 0%

Compound: O=C(N=c1ccccn1Cc1ccc(Cl)nc1)C(F)(F)F [N-[1-[(6-chloro-3-pyridinyl)methyl]-2(1H)-pyridinylidene]-2,2,2-trifluoro-acetamide]
- pest or weed control at 0.1 ppm [4, 7]: 30%
- pest or weed control at 0.1 ppm [4, 8]: 20%

Compound: CCOP(=O)(SC(C)CC)SC(C)CC (stereo not drawn) [Cadusafos]
- Efficacy in % after 14d ([1]; 50 ppm): 0%
- Efficacy in % after 14d ([1]; 100 ppm): 0%

Compound: O=C(Nc1ccn(-c2ncc(F)cc2F)n1)c1ccccc1C(F)(F)F [Compound (Ib), N-[1-(3,5-difluoropyridin-2-yl)-1H-pyrazol-3-yl]-2-(trifluoromethyl)benzamide]
- mortality at 25 ppm ([2]; drench, bean plants, 25 ppm, after 15 d, single compound): 0%
- pest or weed control at 2 ppm [4, 7]: 0%
- pest or weed control at 20 ppm [4, 7]: 0%
- pest or weed control at 2 ppm [4, 8]: 0%
- Efficacy in % after 14d ([5]; 40 ppm): 0%
- Efficacy in % after 4d ([5]; 200 ppm): 0%
- Efficacy in % after 6d ([5]; 200 ppm): 0%
- Efficacy in % after 21d ([6]; 0.75 ppm): 55%

Compound: CNC(=O)c1cc(Cl)cc(C)c1NC(=O)c1cc(Br)nn1-c1ncccc1Cl [Chlorantraniliprole]
- pest or weed control at 0.8 ppm ([4]; 168 h, 0.8 ppm, 7 d, read-out: Efficacy in % after 7d): 10%
- pest or weed control at 1.6 ppm ([4]; 168 h, 1.6 ppm, 7 d, read-out: Efficacy in % after 7d): 20%
- pest or weed control at 0.4 ppm ([4]; 240 h, 0.4 ppm, 10 d, read-out: Efficacy in % after 10d): 0%
- Efficacy in % after 14d ([5]; 0.04 ppm): 66.5%

Compound: Nc1cnn(-c2c(F)cccc2F)n1 [intermediate (Ic-8), 2-(2,6-Difluorophenyl)-2H-1,2,3-triazole-4-amine]
- logP [3]: 1.16

Compound: CN/C(=N\[N+](=O)[O-])NCc1cnc(Cl)s1 [Clothianidin, reference compound]
- Efficacy in % after 6d ([5]; 2 ppm): 0%
- Efficacy in % after 4d ([5]; 10 ppm): 0%
- Efficacy in % after 6d ([5]; 10 ppm): 37%

Compound: CNC(=O)c1cc(C#N)cc(C)c1NC(=O)c1cc(Cn2nnc(C(F)(F)F)n2)nn1-c1ncccc1Cl [1-(3-chloropyridin-2-yl)-N-[4-cyano-2-methyl-6-(methylcarbamoyl)phenyl]-3-{[5-(trifluoromethyl)-2H-tetrazol-2-yl]methyl}-1H-pyrazole-5-carboxamide]
- pest or weed control at 0.25 ppm [4, 7]: 0%
- pest or weed control at 0.25 ppm [4, 8]: 0%

Compound: Nc1ccn(-c2ncc(F)cc2F)n1 [intermediate (Ib-1), 1-(3,5-Difluoropyridin-2-yl)-1H-pyrazole-3-amine]
- logP [3]: 0.81

Compound: CC(C)NC(=O)N1CC(=O)N(c2cc(Cl)cc(Cl)c2)C1=O [Iprodione]
- Efficacy in % after 14d ([1]; 50 ppm): 0%
- Efficacy in % after 14d ([1]; 100 ppm): 0%

Compound: O=[N+]([O-])NC1=NCCN1Cc1ccc(Cl)nc1 [Imidacloprid, reference compound]
- Efficacy in % after 6d ([5]; 10 ppm): 0%
- Efficacy in % after 4d ([5]; 50 ppm): 22%
- Efficacy in % after 6d ([5]; 50 ppm): 12%

Compound: O=C(NCCc1ncc(C(F)(F)F)cc1Cl)c1ccccc1C(F)(F)F [Fluopyram, reference compound]
- Efficacy in % after 21d ([6]; 0.15 ppm): 0%

Compound: Cc1cc(C(F)(C(F)(F)F)C(F)(F)F)ccc1NC(=O)c1cccc(I)c1C(=O)NC(C)(C)CS(C)(=O)=O [Flubendiamide, reference compound]
- Efficacy in % after 14d ([5]; 4 ppm): 33%
- Efficacy in % after 14d ([5]; 8 ppm): 66%

Compound: CS/C(C)=N\OC(=O)N(C)SN(C)C(=O)O/N=C(\C)SC [Thiodicarb]
- Efficacy in % after 14d ([1]; 50 ppm): 0%

Compound: N#Cc1nn(-c2c(Cl)cc(C(F)(F)F)cc2Cl)c(N)c1[S+]([O-])C(F)(F)F (stereo not drawn) [Fipronil]
- pest or weed control at 5 ppm [4, 7]: 15%
- pest or weed control at 10 ppm [4, 7]: 40%
- pest or weed control at 5 ppm [4, 8]: 50%
- pest or weed control at 10 ppm [4, 8]: 55%

Compound: CC(=O)NC1=NN(c2c(F)cccc2F)CC1 [intermediate (Ia-2), N-[1-(2,6-Difluorophenyl)-4,5-dihydro-1H-pyrazol-3-yl]acetamide]
- logP [3]: 1.46

Compound: Abamectin
- Efficacy in % after 14d ([1]; 0.02 ppm): 0%
- Efficacy in % after 14d ([1]; 0.08 ppm): 0%

Compound: O=C(Nc1cnn(-c2c(F)cccc2F)n1)c1ccccc1C(F)(F)F [Compound (Ic), N-[2-(2,6-Difluorophenyl)-2H-1,2,3-triazol-4-yl]-2-(trifluoromethyl)benzamide]
- Efficacy in % after 14d ([1]; 0.25 ppm): 0%
- Efficacy in % after 14d ([1]; 1 ppm): 0%
- Efficacy in % after 14d ([1]; 5 ppm): 0%
- Efficacy in % after 14d ([1]; 10 ppm): 70%
- mortality at 25 ppm [2]: 0%
- logP [3]: 2.80
- pest or weed control at 2 ppm [4, 7]: 0%
- pest or weed control at 20 ppm [4, 7]: 0%
- pest or weed control at 2 ppm [4, 8]: 0%
- Efficacy in % after 14d ([5]; 0.2 ppm): 0%
- Efficacy in % after 14d ([5]; 0.8 ppm): 0%
- Efficacy in % after 4d ([5]; 200 ppm): 0%
- Efficacy in % after 6d ([5]; 200 ppm): 0%

Compound: CC(=O)Nc1ccn(-c2c(F)cccc2F)n1 [intermediate (Ia-3), N-[1-(2,6-Difluorophenyl)-1H-pyrazol-3-yl]acetamide]
- logP [3]: 1.33

Compound: CNC(=O)c1cc(C#N)cc(C)c1NC(=O)c1cc(Br)nn1-c1ncccc1Cl [Cyantraniliprole]
- pest or weed control at 0.1 ppm [4, 7]: 20%
- pest or weed control at 0.1 ppm [4, 8]: 10%
- Efficacy in % after 14d ([5]; 0.08 ppm): 16.5%

Compound: C/C=C(\C)C(=O)O[C@H]1C[C@@H](OC(C)=O)[C@@]2(C(=O)OC)CO[C@H]3[C@@H](O)[C@@](C)([C@]45O[C@@]4(C)[C@H]4C[C@@H]5O[C@@H]5OC=C[C@@]54O)[C@H]4[C@]1(CO[C@]4(O)C(=O)OC)[C@@H]32 [Azadirachtin]
- Efficacy in % after 14d ([1]; 16 ppm): 0%

Compound: Emamectin-benzoate
- Efficacy in % after 15 d (mortality) ([2]; drench, bean plants, 2 ppm, after 15 d, single compound): 10%

Compound: Nc1ccn(-c2c(F)cccc2F)n1 [intermediate (Ia-4), 1-(2,6-Difluorophenyl)-1H-pyrazole-3-amine]
- logP [3]: 1.13

Compound: CNC(=O)Oc1cccc2c1OC(C)(C)C2 [Carbofuran]
- Efficacy in % after 14d ([1]; 50 ppm): 0%
- Efficacy in % after 14d ([1]; 100 ppm): 0%
